Laboratory results published in patent publication US4246342A, “Process for the manufacture of pyruvate oxidase, and analytical method and kit for the use of the same” (Toyo Jozo Kabushiki Kaisha, priority 1978, dated 1981).

Legend:
[1] = system: pyruvate oxidase (B-0668); experiment: Effect of several substances added on the enzyme activity; assay type: biochemical, Streptococcus sp. B-0668; conditions: 5 mM of the substance added instead of MgCl2 in the assay system; enzyme from B-0668; MgCl2 = 100
Experimental: (§1) (a) Effect of several substances on the enzyme activity is examined by adding 5 mM of the substance indicated below instead of MgCl2 in the assay system.
(§2) The assay method of pyruvate oxidase of the present invention uses a reaction mixture as follows: […]
(§3) The above reaction mixture (1.0 ml) is pre-incubated at 37° C. for 3 minutes. To this solution is added the enzyme solution (20 μl) and incubated at 37° C. for 10 minutes. 0.1 M citrate buffer (pH 6.0, 2 ml) containing 0.1 M EDTA is added to stop the reaction. The violet color formed is measured by colorimetric method at 565 nm.
(§4) A unit (1 unit, 1 U) of enzyme activity is defined as the activity which generates 1 μmole of hydrogen peroxide per minute.

[2] = molecular target: T1, pyruvate oxidase (IFO-12317) (Aerococcus viridans, UniProt A0ABP2I6X2); experiment: as above; assay type: biochemical, Aerococcus viridans IFO-12317; conditions: 5 mM of the substance added instead of MgCl2 in the assay system; enzyme from IFO-12317; MgCl2 = 100
T1 sequence (A0ABP2I6X2 1-592): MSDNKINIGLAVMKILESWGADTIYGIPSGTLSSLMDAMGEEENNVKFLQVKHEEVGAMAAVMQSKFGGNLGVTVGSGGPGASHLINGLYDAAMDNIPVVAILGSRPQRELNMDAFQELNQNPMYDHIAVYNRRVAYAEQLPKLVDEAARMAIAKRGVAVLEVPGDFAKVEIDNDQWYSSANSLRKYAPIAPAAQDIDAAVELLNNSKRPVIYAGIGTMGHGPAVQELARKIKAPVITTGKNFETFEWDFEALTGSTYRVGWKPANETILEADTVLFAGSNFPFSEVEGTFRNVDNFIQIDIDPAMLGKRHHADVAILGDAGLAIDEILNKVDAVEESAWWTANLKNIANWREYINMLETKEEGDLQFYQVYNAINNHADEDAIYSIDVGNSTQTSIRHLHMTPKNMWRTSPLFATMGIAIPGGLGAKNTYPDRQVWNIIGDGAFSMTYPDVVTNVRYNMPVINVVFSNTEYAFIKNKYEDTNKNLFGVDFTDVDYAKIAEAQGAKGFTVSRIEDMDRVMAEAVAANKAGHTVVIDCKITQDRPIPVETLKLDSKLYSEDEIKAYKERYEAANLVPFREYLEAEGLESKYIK
Experimental: as §1, §2, §3, §4

[3] = system: pyruvate oxidase (B-0667); experiment: as above; assay type: biochemical, Pediococcus sp. B-0667; conditions: 5 mM of the substance added instead of MgCl2 in the assay system; enzyme from B-0667; MgCl2 = 100
Experimental: as §1, §2, §3, §4

[4] = molecular target: T2, pyruvate oxidase (IFO-12219) (Aerococcus viridans, UniProt A0ABP2I6X2); experiment: as above; assay type: biochemical, Aerococcus viridans IFO-12219; conditions: 5 mM of the substance added instead of MgCl2 in the assay system; enzyme from IFO-12219; MgCl2 = 100
T2 sequence (A0ABP2I6X2 1-592): T1 sequence (A0ABP2I6X2 1-592)
Experimental: as §1, §2, §3, §4

[5] = system: pyruvate oxidase; experiment: Effect of substances on the enzyme, summary statements for the four strains; assay type: biochemical; conditions: summary in words; for Effect on the enzyme (inhibited / activated): 5 mM substance; for Requirement of the enzyme for the substance (cofactor / substrate): elimination from the assay system
Experimental: as §1
0.1 M dimethylglutarate-NaOH buffer is used in the case of phosphate elimination.
The assay method of pyruvate oxidase of the present invention uses a reaction mixture as follows:
as §3

[6] = system: pyruvate oxidase (B-0668); experiment: Effect of elimination of a substance from the assay system on the enzyme activity; assay type: biochemical, Streptococcus sp. B-0668; conditions: enzyme from B-0668, no elimination = 100, 0.1 M dimethylglutarate-NaOH buffer for phosphate elimination
Experimental: (§5) (b) Effect of elimination of the following substance from the assay system on the enzyme activity is shown below. 0.1 M dimethylglutarate-NaOH buffer is used in the case of phosphate elimination.
as §2, §3, §4

[7] = system: pyruvate oxidase (B-0667); experiment: as above; assay type: biochemical, Pediococcus sp. B-0667; conditions: enzyme from B-0667, no elimination = 100, 0.1 M dimethylglutarate-NaOH buffer for phosphate elimination
Experimental: as §5, §2, §3, §4

[8] = molecular target: T2, pyruvate oxidase (IFO-12219); experiment: as above; assay type: biochemical, Aerococcus viridans IFO-12219; conditions: enzyme from IFO-12219, no elimination = 100, 0.1 M dimethylglutarate-NaOH buffer for phosphate elimination
Experimental: as §5, §2, §3, §4

[9] = molecular target: T1, pyruvate oxidase (IFO-12317); experiment: as above; assay type: biochemical, Aerococcus viridans IFO-12317; conditions: enzyme from IFO-12317, no elimination = 100, 0.1 M dimethylglutarate-NaOH buffer for phosphate elimination
Experimental: as §5, §2, §3, §4

Row | Compound | Relative activity (%) [1] [%] | Relative activity (%) [2] [%] | Relative activity (%) [3] [%] | Relative activity (%) [4] [%] | Effect on the enzyme (inhibited / activated) [5] | Requirement of the enzyme for the substance (cofactor / substrate) [5] | Relative activity (%), substance eliminated [6] [%] | Relative activity (%), substance eliminated [7] [%] | Relative activity (%), substance eliminated [8] [%] | Relative activity (%), substance eliminated [9] [%]
1 | [Ba+2].[Cl-].[Cl-] [BaCl2] | 58.8 | 28.8 | 20.6 | 23.9 | – | – | – | – | – | –
2 | [Ca+2].[Cl-].[Cl-] [CaCl2] | 75.0 | 78.7 | 69.4 | 83.4 | activated | – | – | – | – | –
3 | [Cl-].[Cl-].[Co+2] [CoCl2] | 81.1 | 84.0 | 81.3 | 85.0 | activated | – | – | – | – | –
4 | O=C(O)CN(CCN(CC(=O)O)CC(=O)O)CC(=O)O [EDTA, ethylene-diaminetetraacetic acid] | 0 | – | 0 | 0 | inhibited | – | – | – | – | –
5 | Cc1cc2nc3c(=O)[nH]c(=O)nc-3n(C[C@H](O)[C@H](O)[C@H](O)COP(=O)(O)OP(=O)(O)OC[C@H]3O[C@@H](n4cnc5c(N)ncnc54)[C@H](O)[C@@H]3O)c2cc1C [FAD, flavin adenine dinucleotide] | – | – | – | – | – | requires | 100 | 33.9 | 32.7 | –
6 | [Cl-].[Cl-].[Mg+2] [MgCl2] | 100 | 100 | 100 | 100 | activated | – | – | – | – | –
7 | [Cl][Mn][Cl] [MnCl2] | 102.7 | 111.0 | 129.1 | 116.2 | activated | – | – | – | – | –
8 | Cc1ncc(C[n+]2csc(CCO[P@](=O)(O)OP(=O)(O)O)c2C)c(N)n1 [Thiaminepyrophosphate, thiamine pyrophosphate] | – | – | – | – | – | requires | 0 | 0 | 0 | –
9 | [Cl-].[Cl-].[Zn+2] [ZnCl2] | 38.2 | 22.8 | 16.0 | 14.9 | – | – | – | – | – | –
10 | phosphate | – | – | – | – | – | requires | 0 | 0 | 0 | 0
